Values after ≈ are worked out from the molar mass of the structure shown.
Key:
[1] = biological target: T1, Dual specificity protein kinase TTK (Homo sapiens, UniProt P33981)
T1 sequence (P33981 whole entry): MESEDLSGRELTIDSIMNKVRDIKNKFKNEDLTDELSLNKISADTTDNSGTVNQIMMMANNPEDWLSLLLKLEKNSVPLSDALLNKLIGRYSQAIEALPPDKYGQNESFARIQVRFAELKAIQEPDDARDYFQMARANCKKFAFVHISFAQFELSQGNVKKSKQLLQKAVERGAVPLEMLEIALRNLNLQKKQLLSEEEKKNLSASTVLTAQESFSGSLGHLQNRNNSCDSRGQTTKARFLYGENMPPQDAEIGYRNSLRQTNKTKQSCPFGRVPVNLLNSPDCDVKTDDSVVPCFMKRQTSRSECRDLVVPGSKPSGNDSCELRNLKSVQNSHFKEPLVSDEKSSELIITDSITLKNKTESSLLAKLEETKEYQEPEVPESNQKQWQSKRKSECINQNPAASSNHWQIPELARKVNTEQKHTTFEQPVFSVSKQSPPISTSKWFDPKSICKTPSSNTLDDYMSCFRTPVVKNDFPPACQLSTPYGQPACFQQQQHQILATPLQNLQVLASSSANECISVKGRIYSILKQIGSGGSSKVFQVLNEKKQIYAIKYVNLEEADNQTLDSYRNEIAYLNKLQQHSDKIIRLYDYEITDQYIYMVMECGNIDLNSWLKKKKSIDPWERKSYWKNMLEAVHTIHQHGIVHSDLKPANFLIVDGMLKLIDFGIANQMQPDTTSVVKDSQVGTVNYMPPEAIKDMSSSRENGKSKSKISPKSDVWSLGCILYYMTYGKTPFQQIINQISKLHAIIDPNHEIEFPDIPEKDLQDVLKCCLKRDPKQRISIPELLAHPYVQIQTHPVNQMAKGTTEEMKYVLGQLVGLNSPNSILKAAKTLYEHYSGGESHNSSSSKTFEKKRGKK

[2] = Clearance in beagle dog at 1 mg/kg, iv or 5 mg/kg, po by LC-MS/MS analysis; format: ADME, organism-based, Canis lupus familiaris; details: in vivo
[3] = AUC (0 to infinity) in Sprague-Dawley rat at 5 mg/kg, po by LC-MS/MS analysis; format: ADME, organism-based; set-up: dose 5 mg/kg, time infinity, route oral; details: in vivo
[4] = Bioavailability in beagle dog at 5 mg/kg by LC-MS/MS analysis; format: ADME, organism-based, Canis lupus familiaris; details: in vivo
[5] = Cmax in athymic CD-1 nude mouse at 10 mg/kg, po by LC-MS/MS analysis; format: ADME, organism-based; set-up: dose 10 mg/kg, route oral; details: in vivo
[6] = Toxicity in po dosed athymic nude mouse; format: organism-based; details: in vivo
[7] = Bioavailability in Sprague-Dawley rat at 5 mg/kg by LC-MS/MS analysis; format: ADME, organism-based; details: in vivo
HCT-116 [8] = test: Antitumor activity against human HCT116 cells xenografted in athymic nude mouse assessed as tumor growth inhibition at 15 mg/kg, po qd measured on day 21; format: functional; details: HCT-116, po, 504 h, read-out: TGI
[9] = Dissociation constant, pKa of the compound; format: physicochemical
HCT-116 [10] = test: Growth inhibition of human HCT116 cells measured after 5 days by sulforhodamine B assay; format: functional; details: HCT-116, 120 h
[11] = Clearance in Sprague-Dawley rat at 1 mg/kg, iv or 5 mg/kg, po by LC-MS/MS analysis; format: ADME, organism-based; details: in vivo
OVCAR-3 = test: Growth inhibition of human OVCAR3 cells measured after 5 days by sulforhodamine B assay; format: functional; details: OVCAR-3, 120 h
Cytochrome P450 3A4 [12] = biological target: T2, Cytochrome P450 3A4 (Homo sapiens, UniProt P08684); test: Inhibition of CYP3A4 (unknown origin) preincubated for 10 mins followed by addition of BFC as substrate measured after 10 mins in presence of NADP by fluorescence analysis; format: ADME
T2 sequence (P08684 whole entry): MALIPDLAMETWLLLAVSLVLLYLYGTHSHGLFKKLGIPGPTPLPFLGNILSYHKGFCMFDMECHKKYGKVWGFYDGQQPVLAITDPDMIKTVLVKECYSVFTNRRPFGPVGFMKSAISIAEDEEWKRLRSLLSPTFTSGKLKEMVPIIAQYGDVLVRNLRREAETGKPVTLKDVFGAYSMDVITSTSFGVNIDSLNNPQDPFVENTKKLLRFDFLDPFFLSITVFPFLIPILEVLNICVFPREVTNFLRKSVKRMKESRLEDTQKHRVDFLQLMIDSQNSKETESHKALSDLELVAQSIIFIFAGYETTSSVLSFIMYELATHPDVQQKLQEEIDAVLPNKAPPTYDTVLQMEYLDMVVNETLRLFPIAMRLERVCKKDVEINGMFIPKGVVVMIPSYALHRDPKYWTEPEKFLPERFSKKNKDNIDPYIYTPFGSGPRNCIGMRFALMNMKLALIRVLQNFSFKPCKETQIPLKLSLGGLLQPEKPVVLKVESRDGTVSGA

[13] = Solubility of the compound at pH 2; format: physicochemical; details: buffer
[14] = AUC (0 to infinity) in beagle dog at 5 mg/kg, po by LC-MS/MS analysis; format: ADME, organism-based, Canis lupus familiaris; set-up: dose 5 mg/kg, route oral, time infinity; details: in vivo
[15] = Solubility of the compound at pH 7.4; format: physicochemical; details: buffer
[16] = AUC in athymic CD-1 nude mouse at 10 mg/kg, po by LC-MS/MS analysis; format: ADME, organism-based; details: in vivo
HT-29 [17] = test: Antitumor activity against human HT-29 cells xenografted in athymic nude mouse assessed as tumor growth inhibition at 15 mg/kg, po qd measured on day 21; format: functional; details: HT-29, po, 504 h, read-out: TGI
MDA-MB-468 = test: Growth inhibition of human MDA-MB-468 cells measured after 5 days by sulforhodamine B assay; format: functional; details: MDA-MB-468, 120 h
HCT-116 [18] = test: Antitumor activity against human HCT116 cells xenografted in athymic nude mouse assessed as tumor growth inhibition at 6.5 mg/kg, po qd measured on day 21; format: functional; details: HCT-116, po, 504 h, read-out: TGI
HT-29 [19] = test: Antitumor activity against human HT-29 cells xenografted in athymic nude mouse assessed as tumor growth inhibition at 6.5 mg/kg, po qd measured on day 21; format: functional; details: HT-29, po, 504 h, read-out: TGI
[20] = Drug uptake in po dosed mouse plasma; format: ADME, organism-based; details: in vivo
Cytochrome P450 2D6 = Cytochrome P450 2D6 (Homo sapiens, UniProt P10635); test: Inhibition of CYP2D6 (unknown origin) preincubated for 10 mins followed by addition of AMMC as substrate measured after 30 mins in presence of NADP by fluorescence analysis; format: ADME
Sequence of Cytochrome P450 2D6 (P10635 whole entry): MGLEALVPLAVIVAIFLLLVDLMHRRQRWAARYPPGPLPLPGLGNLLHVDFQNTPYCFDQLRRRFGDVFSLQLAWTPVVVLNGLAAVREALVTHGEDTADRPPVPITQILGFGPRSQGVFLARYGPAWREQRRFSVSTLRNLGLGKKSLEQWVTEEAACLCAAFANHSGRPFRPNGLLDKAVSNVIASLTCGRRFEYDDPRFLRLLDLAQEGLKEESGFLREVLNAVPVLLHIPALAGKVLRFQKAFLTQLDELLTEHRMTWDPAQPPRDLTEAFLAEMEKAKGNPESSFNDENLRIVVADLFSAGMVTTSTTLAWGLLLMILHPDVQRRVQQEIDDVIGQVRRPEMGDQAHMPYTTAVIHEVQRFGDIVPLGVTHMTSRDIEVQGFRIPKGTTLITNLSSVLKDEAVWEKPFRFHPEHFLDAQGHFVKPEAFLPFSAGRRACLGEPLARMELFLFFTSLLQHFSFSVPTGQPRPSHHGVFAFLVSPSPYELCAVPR

Cytochrome P450 3A4 [21] = biological target: T2, Cytochrome P450 3A4; test: Inhibition of CYP3A4 (unknown origin) preincubated for 10 mins followed by addition of DBF as substrate measured after 10 mins in presence of NADP by fluorescence analysis; format: ADME
[22] = Toxicity in po dosed athymic nude mouse xenografted with human HCT116 cells assessed as induction of overt adverse signs measured on day 21; format: organism-based; details: in vivo
HCT-116 [23] = test: Antitumor activity against human HCT116 cells xenografted in athymic nude mouse assessed as tumor growth inhibition measured on day 21 relative to vehicle-treated control; format: functional
Cytochrome P450 1A2 = biological target: T3, Cytochrome P450 1A2 (Homo sapiens, UniProt P05177); test: Inhibition of CYP1A2 (unknown origin) preincubated for 10 mins followed by addition of CEC as substrate measured after 15 mins in presence of NADP by fluorescence analysis; format: ADME
T3 sequence (P05177 whole entry): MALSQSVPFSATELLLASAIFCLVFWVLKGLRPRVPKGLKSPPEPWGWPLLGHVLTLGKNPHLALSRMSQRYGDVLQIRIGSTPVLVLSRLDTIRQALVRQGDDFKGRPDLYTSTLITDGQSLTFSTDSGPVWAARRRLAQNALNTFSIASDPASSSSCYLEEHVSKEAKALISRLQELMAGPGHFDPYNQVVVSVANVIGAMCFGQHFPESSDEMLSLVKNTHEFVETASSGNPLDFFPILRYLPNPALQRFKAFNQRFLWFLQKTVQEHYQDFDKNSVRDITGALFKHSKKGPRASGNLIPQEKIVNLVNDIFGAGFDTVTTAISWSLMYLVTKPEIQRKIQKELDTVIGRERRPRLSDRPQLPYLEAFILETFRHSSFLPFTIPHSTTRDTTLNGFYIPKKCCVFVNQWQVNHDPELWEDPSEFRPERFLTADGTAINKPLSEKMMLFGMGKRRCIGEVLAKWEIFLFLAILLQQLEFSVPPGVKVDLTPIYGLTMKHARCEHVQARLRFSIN

Cytochrome P450 2C9 = Cytochrome P450 2C9 (Homo sapiens, UniProt P11712); test: Inhibition of CYP2C9 (unknown origin) preincubated for 10 mins followed by addition of MFC as substrate measured after 45 mins in presence of NADP by fluorescence analysis; format: ADME
Sequence of Cytochrome P450 2C9 (P11712 whole entry): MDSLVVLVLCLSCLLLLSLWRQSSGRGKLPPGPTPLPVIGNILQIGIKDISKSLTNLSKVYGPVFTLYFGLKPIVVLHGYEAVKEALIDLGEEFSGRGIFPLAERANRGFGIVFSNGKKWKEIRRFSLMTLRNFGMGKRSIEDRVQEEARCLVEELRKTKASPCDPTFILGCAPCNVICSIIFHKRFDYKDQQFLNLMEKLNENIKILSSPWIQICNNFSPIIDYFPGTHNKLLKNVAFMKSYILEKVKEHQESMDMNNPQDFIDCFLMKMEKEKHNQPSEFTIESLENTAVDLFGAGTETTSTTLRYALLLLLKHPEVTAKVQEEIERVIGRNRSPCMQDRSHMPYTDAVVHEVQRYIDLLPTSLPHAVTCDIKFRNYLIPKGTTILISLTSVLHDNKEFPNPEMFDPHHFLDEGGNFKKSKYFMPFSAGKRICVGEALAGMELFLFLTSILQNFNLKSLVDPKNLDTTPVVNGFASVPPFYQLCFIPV

Cytochrome P450 2C19 = Cytochrome P450 2C19 (Homo sapiens, UniProt P33261); test: Inhibition of CYP2C19 (unknown origin) preincubated for 10 mins followed by addition of MFC as substrate measured after 30 mins in presence of NADP by fluorescence analysis; format: ADME
Sequence of Cytochrome P450 2C19 (P33261 whole entry): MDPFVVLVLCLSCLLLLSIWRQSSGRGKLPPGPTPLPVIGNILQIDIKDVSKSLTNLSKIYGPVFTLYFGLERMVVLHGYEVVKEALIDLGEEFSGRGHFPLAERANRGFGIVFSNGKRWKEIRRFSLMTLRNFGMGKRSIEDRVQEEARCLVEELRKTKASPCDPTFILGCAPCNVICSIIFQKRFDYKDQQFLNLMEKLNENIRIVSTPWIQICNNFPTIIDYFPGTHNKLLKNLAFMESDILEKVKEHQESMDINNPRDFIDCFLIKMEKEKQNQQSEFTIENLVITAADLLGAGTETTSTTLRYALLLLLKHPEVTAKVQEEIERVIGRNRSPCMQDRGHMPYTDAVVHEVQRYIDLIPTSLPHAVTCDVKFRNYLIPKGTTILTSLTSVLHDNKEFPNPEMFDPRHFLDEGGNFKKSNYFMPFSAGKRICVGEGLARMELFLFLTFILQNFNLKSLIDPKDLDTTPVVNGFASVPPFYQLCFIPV

[24] = Toxicity in po dosed athymic nude mouse xenografted with human HCT116 cells assessed as weight loss measured on day 21; format: organism-based; details: in vivo
HCT-116 [25] = test: Antitumor activity against human HCT116 cells xenografted in athymic nude mouse assessed as tumor growth inhibition at 5.5 mg/kg, po qd measured on day 21; format: functional; details: HCT-116, po, 504 h, read-out: TGI

## Cc1cc(-c2cnn3c(NCC4CCOCC4)cc(N[C@@H](C4CC4)C(C)(C)O)nc23)ccc1C(=O)NC1CC1
[1]
  IC50: 7 nM
[2]
  clearance: 13 mL/min/kg
[3]
  AUC(0-inf): 490 ng·h/mL
[4]
  bioavailability: 98%
[5]
  Cmax: 5500 ng/mL
[6]
  MTD: 15 mg/kg
[7]
  bioavailability: 38%
HCT-116 [8]
  inhibition in vivo at 15 mg/kg: 70%
[9]
  pKa: 3.5
HCT-116 [10]
  GI50: 20 nM
[11]
  clearance: 66 mL/min/kg
OVCAR-3
  GI50: 80 nM
Cytochrome P450 3A4 [12]
  IC50: 3000 nM
[13]
  solubility: 470 µg/mL (≈ 882 µM)
[14]
  AUC(0-inf): 6900 ng·h/mL
[15]
  solubility: 10 µg/mL (≈ 18.8 µM)
[16]
  AUC: 20000 ng·h/mL
HT-29 [17]
  inhibition in vivo at 15 mg/kg: 38%
MDA-MB-468
  GI50: 60 nM

## Cc1cc(-c2cnn3c(NCCN4CCOCC4)cc(Oc4cccc(F)c4)nc23)ccc1C(=O)NC1CC1
[1]
  IC50: 2.2 nM
[2]
  clearance: 29 mL/min/kg
[3]
  AUC(0-inf): 1900 ng·h/mL
[4]
  bioavailability: 77%
[5]
  Cmax: 1200 ng/mL
[6]
  MTD: 6.5 mg/kg
HCT-116 [18]
  inhibition in vivo at 6.5 mg/kg: 72%
HT-29 [19]
  inhibition in vivo at 6.5 mg/kg: 41%
[7]
  bioavailability: 77%
[9]
  pKa: 6.7
[20]
  Drug uptake: Dose-dependent effect
HCT-116 [10]
  GI50: 1 nM
[11]
  clearance: 34 mL/min/kg
OVCAR-3
  GI50: 260 nM
Cytochrome P450 3A4 [12]
  IC50: 780 nM
[13]
  solubility: 11000 µg/mL (≈ 20700 µM)
[14]
  AUC(0-inf): 2200 ng·h/mL
[15]
  solubility: 1.5 µg/mL (≈ 2.83 µM)
[16]
  AUC: 3600 ng·h/mL
MDA-MB-468
  GI50: 20 nM

## Cc1cc(-c2cnn3c(NC[C@H]4C[C@@](C)(O)C4)cc(Oc4cccnc4)nc23)ccc1C(=O)NC1CC1 [LUVIXASERTIB]
Cytochrome P450 2D6
  IC50: Not Active
Cytochrome P450 3A4 [21]
  IC50: 14000 nM
[22]
  Activity: Non-Toxic
[2]
  clearance: 4.9 mL/min/kg
[3]
  AUC(0-inf): 3400 ng·h/mL
[4]
  bioavailability: 114%
HCT-116 [23]
  TGI: Dose-dependent effect
[5]
  Cmax: 2500 ng/mL
[6]
  MTD: 6.5 mg/kg
HCT-116 [18]
  inhibition in vivo at 6.5 mg/kg: 68%
Cytochrome P450 1A2
  IC50: Not Active
HT-29 [19]
  inhibition in vivo at 6.5 mg/kg: 60%
[7]
  bioavailability: 53%
Cytochrome P450 2C9
  IC50: 13000 nM
[9]
  pKa: 3.7
Cytochrome P450 2C19
  IC50: 8000 nM
HCT-116 [10]
  GI50: 2 nM
[11]
  clearance: 14 mL/min/kg
OVCAR-3
  GI50: 4 nM
Cytochrome P450 3A4 [12]
  IC50: 510 nM
[13]
  solubility: 560 µg/mL (≈ 1120 µM)
[14]
  AUC(0-inf): 25000 ng·h/mL
[15]
  solubility: 3.3 µg/mL (≈ 6.62 µM)
[16]
  AUC: 7500 ng·h/mL
MDA-MB-468
  GI50: 2 nM
[24]
  Activity: < 10%
HCT-116 [25]
  inhibition in vivo at 5.5 mg/kg: 68%

## Cc1cc(-c2cnn3c(NCC4CC4)cc(NC4CCCC[C@H]4O)nc23)ccc1C(=O)NC1CC1 (single isomer, unassigned)
[1]
  IC50: 2.2 nM
[2]
  clearance: 7.9 mL/min/kg
[3]
  AUC(0-inf): 3700 ng·h/mL
[4]
  bioavailability: 95%
[5]
  Cmax: 1700 ng/mL
[6]
  MTD: 15 mg/kg
[7]
  bioavailability: 94%
HCT-116 [8]
  inhibition in vivo at 15 mg/kg: 72%
[9]
  pKa: 3.4
HCT-116 [10]
  GI50: 9 nM
[11]
  clearance: 22 mL/min/kg
OVCAR-3
  GI50: 15 nM
Cytochrome P450 3A4 [12]
  IC50: 2000 nM
[13]
  solubility: 170 µg/mL (≈ 358 µM)
[14]
  AUC(0-inf): 14000 ng·h/mL
[15]
  solubility: 5.3 µg/mL (≈ 11.2 µM)
[16]
  AUC: 3100 ng·h/mL
HT-29 [17]
  inhibition in vivo at 15 mg/kg: 53%
MDA-MB-468
  GI50: 20 nM
